Experimental findings from US7078407B2, “4-hydroxycinnamamide derivatives as antioxidants and pharmaceutical compositions containing them” (Korea Research Institute of Chemical Technology, priority 2001, dated 2006) are described below.

Each structure is given as a SMILES string.

The subject of data set [1] is lipid peroxidation in brain homogeneous substance. The data set is described as follows: Antioxidation activation test: lipid peroxidation assay (TBARS/MDA) in brain homogenate with FeCl2/ascorbic acid. The class given is biochemical, SD rat. Particulars: for antioxidation activity increased compared with the prior antioxidation activator BHT: relative to BHT IC50 of Table 4; for IC50: 50% inhibitory concentration of lipid peroxidation (TBARS at 520 nm), rat brain homogenate, FeCl2/ascorbic acid. As to the method: After decapitating a SD rat (male, 10–12 weeks old) and rapidly extracting the brain, 10 mM Tris-HCl buffer solution (pH 7.4) containing 150 mM KCl is added to 10 ml/brain and homogenated. Then, the homogenated brain mixture is centrifuged for 10 minutes at 2,200 rpm, 4° C., and the upper layer is collected through protein assay. The exact amount of protein is measured and kept at −20° C.
250 μl of brain homogeneous substance (5 mg protein/ml), 10 μl of sample substance, 20 μl of buffer solution is divided at the 96-well micro plate one by one, and cultured for 20 minutes at 37° C. under a shaking condition. Then, 10 μl of 20 μM FeCl2 and 250 μM ascorbic acid is respectively added to the mixture and cultured for 30 minutes at 37° C. After completing the reaction by adding 50 μl of 35% HClO4 to the mixture, the micro plate is centrifuged for 10 minutes at 2,000 rpm, 4° C., and only the upper layer is transferred to the 96-well micro plate in an amount of 240 μl, and then, 120 μl of TBA (thiabarbituric acid; 5 mg/ml in 50% acetic acid) is added to the mixture. After reacting the micro plate for an hour at 80° C., it is cooled at room temperature, and the optical density of the thus obtained TBARS (thiobarbituric acid reactive substances, MDA) is measured at 520 nm.
The assay response curve of TBARS obtained using tetraethoxypropane, a reaction substance of TBA is used in calculating the amount of reaction product MDA of the sample substance, and the oxidation inhibition effect of the test drug is obtained by the following equation 1. Further, the 50% inhibitory concentration (IC50) is obtained using the dose response curve.
wherein, A is the concentration (nmol) of the control protein (MDA/mg), and
B is the concentration (nmol) of the experiment protein (MDA/mg).

In the case of `CCCCOc1cc(/C=C/C(=O)N2CCN(c3ccc(NC(=N)c4cccs4)cc3)CC2)cc(OCCCC)c1O` [Example 19, N-(4-{4-[3-(3,5-dibutoxy-4-hydroxy-phenyl)-acryloyl]-piperazine-1-yl}-phenyl)-thiophene-2-carboxamidine], the melting point was in the range of 99 to 102 °C. Further, the “antioxidation activity increased compared with the prior antioxidation activator BHT” value (shortened to “antioxidation activity increased”) in data set [1] is 82%.

`CCCCCCOc1cc(C=CC(=O)N2CCN(CC(O)c3ccc(F)cc3)CC2)cc(OCCCCCC)c1O` (stereo not shown) [Example 12, 3-(3,5-bis-hexyloxy-4-hydroxyphenyl)-1-{4-[2-(4-fluorophenyl)-2-hydroxyethyl]piperazine-1-yl}propenone]: in data set [1], it took 0.26 µM to reach half-maximal inhibition (IC50) and the “antioxidation activity increased” value was 88%.

`CCCCCCCOc1cc(/C=C/C(=O)N2CCN(c3ccc(NC(=N)c4ccc[nH]4)cc3)CC2)cc(OCCCCCCC)c1O` [Example 24, N-(4-{4-[3-(3,5-bis-heptyloxy-4-hydroxy-phenyl)-acryloyl]-piperazine-1-yl}-phenyl)-1H-pyrrole-2-carboxamidine] came in with a melting point of 100 to 145 °C.

With `CCCCCCCCCOc1cc(CN2CCN(CC(O)c3ccc(Cl)cc3)CC2)cc(OCCCCCCCCC)c1O` (stereo not shown) [Example 8, 4-{4-[2-(4-chlorophenyl)-2-hydroethyl]piperazine-1-ylmethyl}-2,6-bis-nonyloxyphenol], in data set [1], half-maximal inhibition (IC50) required 1.53 µM and the “antioxidation activity increased” value stood at 27%.

`CCC(CC)Oc1cc(/C=C/C(=O)N2CCN(c3ccc(NC(=N)c4cccs4)cc3)CC2)cc(OC(CC)CC)c1O` [Example 17] had a melting point of 170 to 171 °C. In data set [1], this compound came in with an IC50 of 0.47 µM.

As for `CCCCCOc1cc(/C=C/C(=O)N2CCN(c3ccc(NC(=N)c4ccc[nH]4)cc3)CC2)cc(OCCCCC)c1O` [Example 23, N-(4-{4-[3-(4-hydroxy-3,5-bis-penyloxy-phenyl)-acryloyl]-piperazine-1-yl}-phenyl)-1H-pyrrole-2-carboxamidine], the melting point fell in the range of 109 to 116 °C. Besides, the concentration for half-maximal inhibition (IC50) in data set [1] was 0.45 µM.

In turn, `CCCOc1cc(/C=C/C(=O)N2CCN(c3ccc(NC(=N)c4cccs4)cc3)CC2)cc(OCCC)c1O` [Example 18, N-(4-{4-[3-(4-hydroxy-3,5-dipropoxy-phenyl)-acryloyl]-piperazine-1-yl}-phenyl)-thiophene-2-carboxamidine] came in with an IC50 in data set [1] of 0.49 µM.

With `CC(C)(C)c1cc(/C=C/C(=O)N2CCN(c3ccc(NC(=N)c4ccc[nH]4)cc3)CC2)cc(C(C)(C)C)c1O` [Example 21, N-(4-{4-[3-(3,5-di-t-butyl-4-hydroxy-phenyl)-acryloyl]-piperazine-1-yl}-phenyl)-1H-pyrrole-2-carboxamidine], the melting point lay within 149 to 167 °C.

Take `CCCCCCOc1cc(/C=C/C(=O)Nc2ccccc2O)cc(OCCCCCC)c1O` [Example 6, 3-(3,5-bishexyloxy-4-hydroxyphenyl)-N-(2-hydroxyphenyl)acrylamide]: the melting point was in the range of 137 to 140 °C.

`CCCCOc1cc(CCC(=O)N2CCN(CC(O)c3ccc(Cl)cc3)CC2)cc(OCCCC)c1O` (stereo not shown) [Example 15, 1-{4-[2-(4-chlorophenyl)-2-hydroxyethyl]piperazine-1-yl}-3-(3,5-dibutoxy-4-hydroxyphenyl)propane-1-one]: in data set [1], the midpoint of inhibition, the IC50, lay at 0.91 µM and the “antioxidation activity increased” value came out at 56%.

For `CC(C)(C)c1cc(/C=C/C(=O)N2CCN(c3ccc(NC(=N)c4cccs4)cc3)CC2)cc(C(C)(C)C)c1O` [Example 16, N-(4-(4-[3-(3,5-di-t-butyl-4-hydroxy-phenyl)-acryloyl]-piperizine-lyl}-phenyl)-thiophene-2-carboxamidine], in data set [1], half-maximal inhibition (IC50) was put at 0.51 µM.

On to `CCCCOc1cc(/C=C/C(=O)N2CCN(c3ccc(NC(=N)c4ccc[nH]4)cc3)CC2)cc(OCCCC)c1O` [Example 22, N-(4-{4-[3-(3,5-dibutoxy-4-hydroxy-phenyl)-acryloyl]-piperazine-1-yl}-phenyl)-1H-pyrrole-2-carboxamidine], for which, in data set [1], the 50% inhibitory concentration (IC50) amounted to 0.37 µM and the “antioxidation activity increased” value amounted to 82%.

`CCCCOc1cc(/C=C/C(=O)NCCc2cc(C(C)(C)C)c(O)c(C(C)(C)C)c2)cc(OCCCC)c1O` [Example 1, 3-(3,5-dibutoxy-4-hydroxyphenyl)-N-[2-(3,5-di-t-butyl-4-hydroxyphenyl)ethyl]acrylamide] gave a melting point of 82 to 85 °C.

`Cc1cc(C(C)(C)C)c(O)c(C(C)(C)C)c1` [BHT, tert-butyl-hydroxytoluene, reference compound] had an IC50 in data set [1] of 2.09 µM. That is a single-digit micromolar value.

`CCC(CC)Oc1cc(/C=C/C(=O)NCc2cc(C(C)(C)C)c(O)c(C(C)(C)C)c2)cc(OC(CC)CC)c1O` [Example 4, 3-[3,5-bis-(1-ethylpropoxy)-4-hydroxyphenyl]-N-(3,5-di-t-butyl-4-hydroxybenzyl)acrylamide] returned a melting point of 75 to 80 °C.
